Tests used:
Experiment in all cases: Histone peptide microarray
Format in all cases: binding, human
ING5 = details: GST-tagged ING5; for Array Heatmap signal (histone peptide microarray): sheet Array Heatmap, each array performed twice, total n = 4
In short: (§1)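 Binding read as mean relative signal from 4 replicates; microarray held 293 synthetic histone peptides with single or combinatorial PTMs. Each GST-tagged PHD reader was applied at 0.5 μM using the optimized Petell protocol.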

KDM5A (3) = details: GST-tagged KDM5A (3); for Array Heatmap signal (histone peptide microarray): sheet Array Heatmap, each array performed twice, total n = 4
In short: as §1

KDM5A (1) = details: GST-tagged KDM5A (1); for Array Heatmap signal (histone peptide microarray): sheet Array Heatmap, each array performed twice, total n = 4
In short: as §1

KDM7A = details: GST-tagged KDM7A; for Array Heatmap signal (histone peptide microarray): sheet Array Heatmap, each array performed twice, total n = 4
In short: as §1

SP140L = details: GST-tagged SP140L; for Array Heatmap signal (histone peptide microarray): sheet Array Heatmap, each array performed twice, total n = 4
In short: as §1

CHD5 (PCC) = details: GST-tagged CHD5 (PCC = PHD + Dual Chromodomain); for Array Heatmap signal (histone peptide microarray): sheet Array Heatmap, each array performed twice, total n = 4
In short: as §1

ING1 = details: GST-tagged ING1; for Array Heatmap signal (histone peptide microarray): sheet Array Heatmap, each array performed twice, total n = 4
In short: as §1

PHF13 = details: GST-tagged PHF13; for Array Heatmap signal (histone peptide microarray): sheet Array Heatmap, each array performed twice, total n = 4
In short: as §1

PHF2 = details: GST-tagged PHF2; for Array Heatmap signal (histone peptide microarray): sheet Array Heatmap, each array performed twice, total n = 4
In short: as §1

BAZ2B = details: GST-tagged BAZ2B; for Array Heatmap signal (histone peptide microarray): sheet Array Heatmap, each array performed twice, total n = 4
In short: as §1

BPTF (PB) = details: GST-tagged BPTF (PB = PHD + Bromodomain); for Array Heatmap signal (histone peptide microarray): sheet Array Heatmap, each array performed twice, total n = 4
In short: as §1

PHF23 = details: GST-tagged PHF23; for Array Heatmap signal (histone peptide microarray): sheet Array Heatmap, each array performed twice, total n = 4
In short: as §1

CHD5 (PPCC) = details: GST-tagged CHD5 (PPCC = Dual PHD + Dual Chromodomain); for Array Heatmap signal (histone peptide microarray): sheet Array Heatmap, each array performed twice, total n = 4
In short: as §1

KDM5B (1) = details: GST-tagged KDM5B (1); for Array Heatmap signal (histone peptide microarray): sheet Array Heatmap, each array performed twice, total n = 4
In short: as §1

ING4 = details: GST-tagged ING4; for Array Heatmap signal (histone peptide microarray): sheet Array Heatmap, each array performed twice, total n = 4
In short: as §1

DIDO1 = details: GST-tagged DIDO1; for Array Heatmap signal (histone peptide microarray): sheet Array Heatmap, each array performed twice, total n = 4
In short: as §1

AIRE (PP) = details: GST-tagged AIRE (PP); for Array Heatmap signal (histone peptide microarray): sheet Array Heatmap, each array performed twice, total n = 4
In short: as §1

DPF2 (PPC2W2) = details: GST-tagged DPF2 (PPC2W2 = Dual PHD + C2W2-type Zn-finger); for Array Heatmap signal (histone peptide microarray): sheet Array Heatmap, each array performed twice, total n = 4
In short: as §1

RAG2 = details: GST-tagged RAG2; for Array Heatmap signal (histone peptide microarray): sheet Array Heatmap, each array performed twice, total n = 4
In short: as §1

TRIM66 (PB) = details: GST-tagged TRIM66 (PB = PHD + Bromodomain); for Array Heatmap signal (histone peptide microarray): sheet Array Heatmap, each array performed twice, total n = 4
In short: as §1

KDM5B (3) = details: GST-tagged KDM5B (3); for Array Heatmap signal (histone peptide microarray): sheet Array Heatmap, each array performed twice, total n = 4
In short: as §1

MORC3 (CW) = details: GST-tagged MORC3 (CW = CW-type Zn-finger); for Array Heatmap signal (histone peptide microarray): sheet Array Heatmap, each array performed twice, total n = 4
In short: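 Readout is array binding signal, reported as the mean and standard deviation over four replicates. Each purified GST-fused PHD domain was incubated at 0.5 μM with a library of 293 modified histone peptides.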

KDM4C (TTP) = details: GST-tagged KDM4C (TTP = Tandem Tudor domain + PHD); for Array Heatmap signal (histone peptide microarray): sheet Array Heatmap, each array performed twice, total n = 4
In short: as §1

MLL5 = details: GST-tagged MLL5; for Array Heatmap signal (histone peptide microarray): sheet Array Heatmap, each array performed twice, total n = 4
In short: as §1

ING2 = details: GST-tagged ING2; for Array Heatmap signal (histone peptide microarray): sheet Array Heatmap, each array performed twice, total n = 4
In short: as §1

TAF3 = details: GST-tagged TAF3; for Array Heatmap signal (histone peptide microarray): sheet Array Heatmap, each array performed twice, total n = 4
In short: as §1

ING3 = details: GST-tagged ING3; for Array Heatmap signal (histone peptide microarray): sheet Array Heatmap, each array performed twice, total n = 4
In short: as §1

CHD4 (PPCC) = details: GST-tagged CHD4 (PPCC = Dual PHD + Dual Chromodomain); for Array Heatmap signal (histone peptide microarray): sheet Array Heatmap, each array performed twice, total n = 4
In short: as §1

PHRF1 (RP) = details: GST-tagged PHRF1 (RP); for Array Heatmap signal (histone peptide microarray): sheet Array Heatmap, each array performed twice, total n = 4
In short: as §1

PHF21A = details: GST-tagged PHF21A; for Array Heatmap signal (histone peptide microarray): sheet Array Heatmap, each array performed twice, total n = 4
In short: as §1

PHF8 = details: GST-tagged PHF8; for Array Heatmap signal (histone peptide microarray): sheet Array Heatmap, each array performed twice, total n = 4
In short: as §1

[1] = histone peptide array, arrays performed twice, n of 4

H3K4me3 + K14ac: H3 1-20
Array Heatmap signal (histone peptide microarray) (ING5): 0.4275
Array Heatmap signal (histone peptide microarray) (KDM5A (3)): 0.8892
Array Heatmap signal (histone peptide microarray) (KDM5A (1)): 0.4609
Array Heatmap signal (histone peptide microarray) (KDM7A): 0.4569
Array Heatmap signal (histone peptide microarray) (SP140L): 0.3446
Array Heatmap signal (histone peptide microarray) (CHD5 (PCC)): 0.7404
Array Heatmap signal (histone peptide microarray) (ING1): 0.9202
Array Heatmap signal (histone peptide microarray) (PHF13): 0.8156
Array Heatmap signal (histone peptide microarray) (PHF2): 0.9532
Array Heatmap signal (histone peptide microarray) (BAZ2B): 0.6127
Array Heatmap signal (histone peptide microarray) (BPTF (PB)): 0.8401
Array Heatmap signal (histone peptide microarray) (PHF23): 0.8632
Array Heatmap signal (histone peptide microarray) (CHD5 (PPCC)): 0.5519
Array Heatmap signal (histone peptide microarray) (KDM5B (1)): 0.7346
Array Heatmap signal (histone peptide microarray) (ING4): 0.6504
Array Heatmap signal (histone peptide microarray) (DIDO1): 1
Array Heatmap signal (histone peptide microarray) (AIRE (PP)): 0.3995
Array Heatmap signal (histone peptide microarray) (DPF2 (PPC2W2)): 0.7495
Array Heatmap signal (histone peptide microarray) (RAG2): 0.9484
Array Heatmap signal (histone peptide microarray) (TRIM66 (PB)): 0.6346
Array Heatmap signal (histone peptide microarray) (KDM5B (3)): 0.7921
Array Heatmap signal (histone peptide microarray) (MORC3 (CW)): 0.8691
Array Heatmap signal (histone peptide microarray) (KDM4C (TTP)): 0.599
Array Heatmap signal (histone peptide microarray) (MLL5): 0.8336
Array Heatmap signal (histone peptide microarray) (ING2): 0.9757
Array Heatmap signal (histone peptide microarray) (TAF3): 0.7363
Array Heatmap signal (histone peptide microarray) (ING3): 0.9261
Array Heatmap signal (histone peptide microarray) (CHD4 (PPCC)): 0.6173
Array Heatmap signal (histone peptide microarray) (PHRF1 (RP)): 0.6002
Array Heatmap signal (histone peptide microarray) (PHF21A): 0.4155
Array Heatmap signal (histone peptide microarray) (PHF8): 0.6468

H3K4me3 + K18ac: H3 1-20
Array Heatmap signal (histone peptide microarray) (ING5): 0.4874
Array Heatmap signal (histone peptide microarray) (KDM5A (3)): 0.9747
Array Heatmap signal (histone peptide microarray) (KDM5A (1)): 0.4457
Array Heatmap signal (histone peptide microarray) (KDM7A): 0.4973
Array Heatmap signal (histone peptide microarray) (SP140L): 0.3614
Array Heatmap signal (histone peptide microarray) (CHD5 (PCC)): 0.8106
Array Heatmap signal (histone peptide microarray) (ING1): 1
Array Heatmap signal (histone peptide microarray) (PHF13): 0.813
Array Heatmap signal (histone peptide microarray) (PHF2): 1
Array Heatmap signal (histone peptide microarray) (BAZ2B): 0.4486
Array Heatmap signal (histone peptide microarray) (BPTF (PB)): 0.7125
Array Heatmap signal (histone peptide microarray) (PHF23): 1
Array Heatmap signal (histone peptide microarray) (CHD5 (PPCC)): 0.5532
Array Heatmap signal (histone peptide microarray) (KDM5B (1)): 0.7261
Array Heatmap signal (histone peptide microarray) (ING4): 0.674
Array Heatmap signal (histone peptide microarray) (DIDO1): 0.9924
Array Heatmap signal (histone peptide microarray) (AIRE (PP)): 0.4183
Array Heatmap signal (histone peptide microarray) (DPF2 (PPC2W2)): 0.7175
Array Heatmap signal (histone peptide microarray) (RAG2): 0.6973
Array Heatmap signal (histone peptide microarray) (TRIM66 (PB)): 0.639
Array Heatmap signal (histone peptide microarray) (KDM5B (3)): 0.8599
Array Heatmap signal (histone peptide microarray) (MORC3 (CW)): 0.8723
Array Heatmap signal (histone peptide microarray) (KDM4C (TTP)): 0.6519
Array Heatmap signal (histone peptide microarray) (MLL5): 0.8685
Array Heatmap signal (histone peptide microarray) (ING2): 0.9902
Array Heatmap signal (histone peptide microarray) (TAF3): 0.7205
Array Heatmap signal (histone peptide microarray) (ING3): 0.7492
Array Heatmap signal (histone peptide microarray) (CHD4 (PPCC)): 0.6241
Array Heatmap signal (histone peptide microarray) (PHRF1 (RP)): 0.7444
Array Heatmap signal (histone peptide microarray) (PHF21A): 0.4388
Array Heatmap signal (histone peptide microarray) (PHF8): 0.6791

H3K4me3 + R8me2s + K9me3: H3 1-20
Array Heatmap signal, ING5 (ING5; [1]): 0.3819
Array Heatmap signal, KDM5A (3) (KDM5A (3); [1]): 0.7166
Array Heatmap signal, KDM5A (1) (KDM5A (1); [1]): 0.429
Array Heatmap signal, KDM7A (KDM7A; [1]): 0.3751
Array Heatmap signal, SP140L (SP140L; [1]): 0.3193
Array Heatmap signal, CHD5 (PCC) (CHD5 (PCC); [1]): 0.7143
Array Heatmap signal, ING1 (ING1; [1]): 0.7489
Array Heatmap signal, PHF13 (PHF13; [1]): 0.633
Array Heatmap signal, PHF2 (PHF2; [1]): 0.8739
Array Heatmap signal, BAZ2B (BAZ2B; [1]): 0.4293
Array Heatmap signal, BPTF (PB) (BPTF (PB); [1]): 0.3866
Array Heatmap signal, PHF23 (PHF23; [1]): 0.6635
Array Heatmap signal, CHD5 (PPCC) (CHD5 (PPCC); [1]): 0.5185
Array Heatmap signal, KDM5B (1) (KDM5B (1); [1]): 0.5808
Array Heatmap signal, ING4 (ING4; [1]): 0.4627
Array Heatmap signal, DIDO1 (DIDO1; [1]): 0.802
Array Heatmap signal, AIRE (PP) (AIRE (PP); [1]): 0.378
Array Heatmap signal, DPF2 (PPC2W2) (DPF2 (PPC2W2); [1]): 0.6565
Array Heatmap signal, RAG2 (RAG2; [1]): 0.4516
Array Heatmap signal, TRIM66 (PB) (TRIM66 (PB); [1]): 0.6066
Array Heatmap signal, KDM5B (3) (KDM5B (3); [1]): 0.5614
Array Heatmap signal, MORC3 (CW) (MORC3 (CW); [1]): 0.5559
Array Heatmap signal, KDM4C (TTP) (KDM4C (TTP); [1]): 0.4847
Array Heatmap signal, MLL5 (MLL5; [1]): 0.7037
Array Heatmap signal, ING2 (ING2; [1]): 0.784
Array Heatmap signal, TAF3 (TAF3; [1]): 0.3814
Array Heatmap signal, ING3 (ING3; [1]): 0.5388
Array Heatmap signal, CHD4 (PPCC) (CHD4 (PPCC); [1]): 0.5208
Array Heatmap signal, PHRF1 (RP) (PHRF1 (RP); [1]): 0.4616
Array Heatmap signal, PHF21A (PHF21A; [1]): 0.4267
Array Heatmap signal, PHF8 (PHF8; [1]): 0.5138

From PMC6979384, “Characterization of the plant homeodomain (PHD) reader family for their histone tail interactions” (Epigenetics & Chromatin, 2020)
